Assay results taken from the NIST ThermoML archive (doi:10.1021/acs.jced.8b00975).
± gives the expanded uncertainty stated by the source.

Experiment: xn = mol fraction of the nth substance listed
Conditions: Liquid, Vibrating tube method

C=C(C)C(=O)OCCN(C)C [2-(dimethylamino)ethyl methylpropenoate] + CCCCO
mass density [kg/m3]
Conditions | 100 kPa | 5000 kPa | 10000 kPa | 15000 kPa | 20000 kPa | 25000 kPa | 30000 kPa | 35000 kPa
293.15 K, x1 = 0.0301 | 817.21 ± 0.52 | 820.9 ± 0.52 | 824.39 ± 0.53 | 827.71 ± 0.54 | 830.88 ± 0.56 | 833.94 ± 0.57 | 836.92 ± 0.58 | 839.85 ± 0.59
293.15 K, x1 = 0.06 | 824.09 ± 0.52 | 827.83 ± 0.52 | 831.32 ± 0.53 | 834.6 ± 0.54 | 837.73 ± 0.55 | 840.76 ± 0.56 | 843.75 ± 0.58 | 846.74 ± 0.59
293.15 K, x1 = 0.1005 | 833.13 ± 0.52 | 836.85 ± 0.52 | 840.32 ± 0.53 | 843.61 ± 0.54 | 846.74 ± 0.55 | 849.77 ± 0.56 | 852.74 ± 0.57 | 855.68 ± 0.58
293.15 K, x1 = 0.1995 | 852.44 ± 0.52 | 856.11 ± 0.52 | 859.55 ± 0.53 | 862.82 ± 0.54 | 865.96 ± 0.55 | 869 ± 0.56 | 872 ± 0.56 | 875.01 ± 0.57
293.15 K, x1 = 0.2993 | 868.71 ± 0.52 | 872.37 ± 0.53 | 875.83 ± 0.53 | 879.12 ± 0.54 | 882.28 ± 0.55 | 885.36 ± 0.55 | 888.38 ± 0.56 | 891.38 ± 0.57
293.15 K, x1 = 0.4005 | 882.69 ± 0.52 | 886.4 ± 0.53 | 889.87 ± 0.53 | 893.17 ± 0.54 | 896.32 ± 0.54 | 899.39 ± 0.55 | 902.42 ± 0.56 | 905.46 ± 0.56
293.15 K, x1 = 0.4521 | 889.04 ± 0.52 | 892.7 ± 0.53 | 896.14 ± 0.53 | 899.43 ± 0.54 | 902.58 ± 0.54 | 905.66 ± 0.55 | 908.71 ± 0.56 | 911.75 ± 0.56
293.15 K, x1 = 0.499 | 894.3 ± 0.52 | 897.94 ± 0.53 | 901.38 ± 0.53 | 904.66 ± 0.54 | 907.82 ± 0.55 | 910.91 ± 0.55 | 913.96 ± 0.56 | 917.02 ± 0.56
293.15 K, x1 = 0.5494 | 899.59 ± 0.52 | 903.22 ± 0.53 | 906.66 ± 0.53 | 909.96 ± 0.54 | 913.14 ± 0.54 | 916.24 ± 0.55 | 919.29 ± 0.55 | 922.33 ± 0.56
293.15 K, x1 = 0.5994 | 904.39 ± 0.53 | 908.07 ± 0.53 | 911.52 ± 0.54 | 914.8 ± 0.54 | 917.94 ± 0.54 | 921.02 ± 0.55 | 924.09 ± 0.55 | 927.2 ± 0.56
293.15 K, x1 = 0.7005 | 913.06 ± 0.53 | 916.73 ± 0.53 | 920.19 ± 0.54 | 923.49 ± 0.54 | 926.66 ± 0.55 | 929.77 ± 0.55 | 932.85 ± 0.55 | 935.95 ± 0.56
293.15 K, x1 = 0.7989 | 920.53 ± 0.53 | 924.22 ± 0.54 | 927.7 ± 0.54 | 931.01 ± 0.55 | 934.2 ± 0.55 | 937.32 ± 0.55 | 940.42 ± 0.56 | 943.55 ± 0.56
293.15 K, x1 = 0.8992 | 927.17 ± 0.54 | 930.88 ± 0.54 | 934.38 ± 0.55 | 937.71 ± 0.55 | 940.93 ± 0.55 | 944.08 ± 0.56 | 947.2 ± 0.56 | 950.36 ± 0.56
293.15 K, x1 = 0.9293 | 928.88 ± 0.54 | 932.61 ± 0.54 | 936.14 ± 0.55 | 939.5 ± 0.55 | 942.75 ± 0.55 | 945.91 ± 0.56 | 949.02 ± 0.56 | 952.13 ± 0.56
293.15 K, x1 = 0.9592 | 930.67 ± 0.54 | 934.41 ± 0.54 | 937.96 ± 0.55 | 941.35 ± 0.55 | 944.61 ± 0.56 | 947.78 ± 0.56 | 950.89 ± 0.56 | 953.97 ± 0.56
303.15 K, x1 = 0.0302 | 809.38 ± 0.52 | 813.38 ± 0.53 | 817.11 ± 0.54 | 820.61 ± 0.55 | 823.91 ± 0.56 | 827.06 ± 0.57 | 830.08 ± 0.58 | 833.02 ± 0.6
303.15 K, x1 = 0.0602 | 816.25 ± 0.52 | 820.35 ± 0.52 | 824.12 ± 0.53 | 827.61 ± 0.54 | 830.9 ± 0.56 | 834.03 ± 0.57 | 837.07 ± 0.58 | 840.08 ± 0.59
303.15 K, x1 = 0.1007 | 825 ± 0.52 | 829.05 ± 0.52 | 832.79 ± 0.53 | 836.28 ± 0.54 | 839.57 ± 0.55 | 842.73 ± 0.56 | 845.81 ± 0.58 | 848.85 ± 0.59
303.15 K, x1 = 0.2007 | 844.03 ± 0.52 | 848.08 ± 0.53 | 851.83 ± 0.53 | 855.35 ± 0.54 | 858.69 ± 0.55 | 861.89 ± 0.56 | 865.03 ± 0.57 | 868.15 ± 0.58
303.15 K, x1 = 0.3007 | 860.04 ± 0.52 | 864.03 ± 0.53 | 867.77 ± 0.53 | 871.3 ± 0.54 | 874.67 ± 0.55 | 877.92 ± 0.56 | 881.1 ± 0.56 | 884.26 ± 0.57
303.15 K, x1 = 0.4013 | 873.63 ± 0.52 | 877.52 ± 0.53 | 881.22 ± 0.53 | 884.76 ± 0.54 | 888.16 ± 0.55 | 891.46 ± 0.55 | 894.68 ± 0.56 | 897.86 ± 0.57
303.15 K, x1 = 0.4512 | 879.59 ± 0.52 | 883.43 ± 0.53 | 887.11 ± 0.54 | 890.65 ± 0.54 | 894.08 ± 0.55 | 897.42 ± 0.55 | 900.69 ± 0.56 | 903.91 ± 0.57
303.15 K, x1 = 0.5007 | 885.03 ± 0.52 | 888.88 ± 0.53 | 892.55 ± 0.54 | 896.09 ± 0.54 | 899.51 ± 0.55 | 902.86 ± 0.55 | 906.16 ± 0.56 | 909.45 ± 0.56
303.15 K, x1 = 0.5502 | 890.11 ± 0.53 | 894.02 ± 0.53 | 897.73 ± 0.54 | 901.29 ± 0.54 | 904.73 ± 0.55 | 908.09 ± 0.55 | 911.42 ± 0.56 | 914.74 ± 0.56
303.15 K, x1 = 0.6045 | 895.25 ± 0.53 | 899.16 ± 0.53 | 902.88 ± 0.54 | 906.44 ± 0.54 | 909.9 ± 0.55 | 913.27 ± 0.55 | 916.62 ± 0.56 | 919.96 ± 0.56
303.15 K, x1 = 0.7005 | 903.5 ± 0.53 | 907.36 ± 0.53 | 911.08 ± 0.54 | 914.68 ± 0.54 | 918.19 ± 0.55 | 921.62 ± 0.55 | 925.01 ± 0.56 | 928.36 ± 0.56
303.15 K, x1 = 0.8026 | 911.12 ± 0.53 | 914.97 ± 0.54 | 918.68 ± 0.54 | 922.29 ± 0.55 | 925.8 ± 0.55 | 929.26 ± 0.56 | 932.68 ± 0.56 | 936.08 ± 0.56
303.15 K, x1 = 0.9026 | 917.53 ± 0.54 | 921.4 ± 0.54 | 925.14 ± 0.55 | 928.77 ± 0.55 | 932.32 ± 0.56 | 935.81 ± 0.56 | 939.25 ± 0.56 | 942.69 ± 0.57
303.15 K, x1 = 0.9303 | 919.17 ± 0.54 | 923.07 ± 0.54 | 926.83 ± 0.55 | 930.48 ± 0.55 | 934.04 ± 0.56 | 937.53 ± 0.56 | 940.98 ± 0.56 | 944.42 ± 0.57
303.15 K, x1 = 0.9616 | 921.02 ± 0.54 | 924.91 ± 0.55 | 928.67 ± 0.55 | 932.32 ± 0.55 | 935.89 ± 0.56 | 939.4 ± 0.56 | 942.88 ± 0.57 | 946.34 ± 0.57
313.15 K, x1 = 0.0302 | 801.72 ± 0.52 | 805.93 ± 0.53 | 809.83 ± 0.54 | 813.46 ± 0.55 | 816.91 ± 0.56 | 820.24 ± 0.57 | 823.51 ± 0.59 | 826.8 ± 0.6
313.15 K, x1 = 0.0603 | 808.58 ± 0.52 | 812.75 ± 0.53 | 816.62 ± 0.54 | 820.25 ± 0.55 | 823.69 ± 0.56 | 827.01 ± 0.57 | 830.28 ± 0.59 | 833.54 ± 0.6
313.15 K, x1 = 0.1019 | 817.15 ± 0.52 | 821.38 ± 0.53 | 825.29 ± 0.54 | 828.95 ± 0.55 | 832.41 ± 0.56 | 835.74 ± 0.57 | 839 ± 0.58 | 842.24 ± 0.59
313.15 K, x1 = 0.2001 | 835.66 ± 0.52 | 839.79 ± 0.53 | 843.65 ± 0.53 | 847.3 ± 0.54 | 850.79 ± 0.55 | 854.16 ± 0.56 | 857.46 ± 0.57 | 860.72 ± 0.58
313.15 K, x1 = 0.301 | 851.41 ± 0.52 | 855.57 ± 0.53 | 859.51 ± 0.53 | 863.24 ± 0.54 | 866.8 ± 0.55 | 870.21 ± 0.56 | 873.49 ± 0.57 | 876.67 ± 0.58
313.15 K, x1 = 0.3999 | 864.54 ± 0.52 | 868.7 ± 0.53 | 872.64 ± 0.54 | 876.4 ± 0.54 | 880 ± 0.55 | 883.45 ± 0.56 | 886.78 ± 0.57 | 890.02 ± 0.57
313.15 K, x1 = 0.4519 | 870.67 ± 0.52 | 874.82 ± 0.53 | 878.78 ± 0.54 | 882.54 ± 0.54 | 886.15 ± 0.55 | 889.61 ± 0.56 | 892.94 ± 0.56 | 896.17 ± 0.57
313.15 K, x1 = 0.5002 | 875.94 ± 0.53 | 880.09 ± 0.53 | 884.04 ± 0.54 | 887.81 ± 0.54 | 891.43 ± 0.55 | 894.9 ± 0.56 | 898.25 ± 0.56 | 901.51 ± 0.57
313.15 K, x1 = 0.5505 | 881.12 ± 0.53 | 885.27 ± 0.53 | 889.22 ± 0.54 | 893.01 ± 0.54 | 896.64 ± 0.55 | 900.13 ± 0.56 | 903.49 ± 0.56 | 906.74 ± 0.57
313.15 K, x1 = 0.6004 | 885.84 ± 0.53 | 890.02 ± 0.53 | 894 ± 0.54 | 897.79 ± 0.54 | 901.42 ± 0.55 | 904.91 ± 0.56 | 908.27 ± 0.56 | 911.52 ± 0.57
313.15 K, x1 = 0.701 | 894.49 ± 0.53 | 898.55 ± 0.53 | 902.51 ± 0.54 | 906.34 ± 0.55 | 910.04 ± 0.55 | 913.62 ± 0.56 | 917.04 ± 0.56 | 920.32 ± 0.57
313.15 K, x1 = 0.8004 | 901.91 ± 0.53 | 905.99 ± 0.54 | 909.92 ± 0.54 | 913.71 ± 0.55 | 917.39 ± 0.55 | 920.98 ± 0.56 | 924.48 ± 0.56 | 927.93 ± 0.57
313.15 K, x1 = 0.9 | 908.36 ± 0.54 | 912.45 ± 0.54 | 916.43 ± 0.55 | 920.31 ± 0.55 | 924.08 ± 0.56 | 927.72 ± 0.56 | 931.24 ± 0.57 | 934.63 ± 0.57
313.15 K, x1 = 0.9322 | 910.31 ± 0.54 | 914.45 ± 0.54 | 918.45 ± 0.55 | 922.31 ± 0.56 | 926.03 ± 0.56 | 929.63 ± 0.56 | 933.11 ± 0.57 | 936.46 ± 0.57
313.15 K, x1 = 0.9608 | 911.98 ± 0.54 | 916.12 ± 0.55 | 920.11 ± 0.55 | 923.96 ± 0.56 | 927.68 ± 0.56 | 931.27 ± 0.57 | 934.75 ± 0.57 | 938.13 ± 0.57
